Patent US9937151B2, “Carbapenem antibacterials with gram-negative activity” (priority 2010, dated 2018)
Converted amounts (≈) assume the structure as drawn.

Tested on: G(−) bacterial strains
Assay: Dilution antimicrobial susceptibility tests (MIC, NCCLS agar dilution / broth dilution)
Assay type: cell-based, Gram-negative organisms
Details: unit assumed
Summary of the method: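 Agar dilution on Mueller-Hinton agar at 10^4 CFU/spot and broth dilution at 5×10^5 CFU/well, per NCCLS M7-A5. Streptococci tested on Mueller-Hinton agar with 5% sheep blood. MIC taken as minimum inhibitory concentration; ATCC control strains run alongside.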

[1] = strain #1 Acinetobacter calcoaceticus
[2] = strain #2 Acinetobacter baumannii, Cf-R, Ci-R
[3] = strain #3 Acinetobacter baumannii, Cf-R, Ci-R, Mp-I
[4] = strain #4 Acinetobacter baumannii, Cf-R, Imp-I, CBPase
[5] = strain #7 Enterobacter aerogenes
[6] = strain #8 Enterobacter cloacae, Cf-R, B+
[7] = strain #9 Enterobacter cloacae, Cf-R
[8] = strain #10 Escherichia coli, Ci-R
[9] = strain #11 Escherichia coli, Ci-R, AmpC
[10] = strain #15 Klebsiella pneumoniae
[11] = strain #16 Moraxella catarrhalis
[12] = strain #21 Providencia rettgeri
[13] = strain #22 Salmonella typhimurium
[14] = strain #25 Shigella dysenteriae
[15] = strain #28 Stenotrophomonas maltophilia

| Structure (SMILES) | MIC [1] [µg/mL] | MIC [2] [µg/mL] | MIC [3] [µg/mL] | MIC [4] [µg/mL] | MIC (strain #5 Citrobacter diversus) [µg/mL] | MIC (strain #6 Citrobacter freundii) [µg/mL] | MIC [5] [µg/mL] | MIC [6] [µg/mL] | MIC [7] [µg/mL] | MIC [8] [µg/mL] | MIC [9] [µg/mL] | MIC (strain #12 Escherichia coli) [µg/mL] | MIC (strain #13 Escherichia coli) [µg/mL] | MIC (strain #14 Klebsiella oxytoca) [µg/mL] | MIC [10] [µg/mL] | MIC [11] [µg/mL] | MIC (strain #17 Morganella Morganii) [µg/mL] | MIC (strain #18 Morganella Morganii) [µg/mL] | MIC (strain #19 Proteus vulgaris) [µg/mL] | MIC (strain #20 Proteus mirabilis) [µg/mL] | further results |
| --- | --- | --- | --- | --- | --- | --- | --- | --- | --- | --- | --- | --- | --- | --- | --- | --- | --- | --- | --- | --- | --- |
| C[C@@H](O)C1C(=O)N2C(C(=O)O)=C(CN3CC[C@H](C(=O)NCC(N)=O)C3)[C@H](C)C12 (stereo partly shown) [Compound 137] | 1 (≈ 2.54 µM) | 2 (≈ 5.07 µM) | 8 (≈ 20.3 µM) | 2 (≈ 5.07 µM) | 0.5 (≈ 1.27 µM) | 1 (≈ 2.54 µM) | 2 (≈ 5.07 µM) | 0.5 (≈ 1.27 µM) | 1 (≈ 2.54 µM) | 0.5 (≈ 1.27 µM) | 0.5 (≈ 1.27 µM) | 0.5 (≈ 1.27 µM) | 1 (≈ 2.54 µM) | 1 (≈ 2.54 µM) | 1 (≈ 2.54 µM) | ≤ 0.008 | 4 (≈ 10.1 µM) | 4 (≈ 10.1 µM) | 2 (≈ 5.07 µM) | 0.5 (≈ 1.27 µM) | MIC [12]: 2 µg/mL (≈ 5.07 µM); MIC [13]: 1 µg/mL (≈ 2.54 µM); MIC (strain #23 Serratia marcescens): 2 µg/mL (≈ 5.07 µM); MIC (strain #24 Serratia marcescens): 2 µg/mL (≈ 5.07 µM); MIC [14]: 1 µg/mL (≈ 2.54 µM); MIC (strain #26 Shigella sonnei): 1 µg/mL (≈ 2.54 µM); MIC (strain #27 Shigella flexneri): 0.5 µg/mL (≈ 1.27 µM); MIC [15]: 0.5 µg/mL (≈ 1.27 µM) |
| C[C@@H](O)C1C(=O)N2C(C(=O)O)=C(CN3CC[C@H](C(=O)NC(=N)N)C3)[C@H](C)C12 (stereo partly shown) [Compound 143] | 8 (≈ 21.1 µM) | 32 (≈ 84.3 µM) | 32 (≈ 84.3 µM) | > 32 | 0.5 (≈ 1.32 µM) | 1 (≈ 2.64 µM) | 4 (≈ 10.5 µM) | 0.5 (≈ 1.32 µM) | 1 (≈ 2.64 µM) | 0.5 (≈ 1.32 µM) | 0.5 (≈ 1.32 µM) | 0.5 (≈ 1.32 µM) | 0.5 (≈ 1.32 µM) | 1 (≈ 2.64 µM) | 2 (≈ 5.27 µM) | 0.063 (≈ 0.166 µM) | 16 (≈ 42.2 µM) | 8 (≈ 21.1 µM) | 8 (≈ 21.1 µM) | 1 (≈ 2.64 µM) | MIC [12]: 2 µg/mL (≈ 5.27 µM); MIC [13]: 0.5 µg/mL (≈ 1.32 µM); MIC (strain #23 Serratia marcescens): 1 µg/mL (≈ 2.64 µM); MIC (strain #24 Serratia marcescens): 2 µg/mL (≈ 5.27 µM); MIC [14]: 1 µg/mL (≈ 2.64 µM); MIC (strain #26 Shigella sonnei): 1 µg/mL (≈ 2.64 µM); MIC (strain #27 Shigella flexneri): 0.5 µg/mL (≈ 1.32 µM); MIC [15]: 4 µg/mL (≈ 10.5 µM) |
| C[C@@H](O)C1C(=O)N2C(C(=O)O)=C(CN3CC[C@H](O)C3)[C@H](C)C12 (stereo partly shown) [Compound 146] | 1 (≈ 3.22 µM) | 1 (≈ 3.22 µM) | 2 (≈ 6.44 µM) | 4 (≈ 12.9 µM) | 0.5 (≈ 1.61 µM) | 0.5 (≈ 1.61 µM) | 2 (≈ 6.44 µM) | 0.25 (≈ 0.806 µM) | 1 (≈ 3.22 µM) | 0.25 (≈ 0.806 µM) | 0.25 (≈ 0.806 µM) | 0.5 (≈ 1.61 µM) | 0.5 (≈ 1.61 µM) | 1 (≈ 3.22 µM) | 1 (≈ 3.22 µM) | 0.016 (≈ 0.0516 µM) | 8 (≈ 25.8 µM) | 8 (≈ 25.8 µM) | 4 (≈ 12.9 µM) | 0.5 (≈ 1.61 µM) | MIC [12]: 2 µg/mL (≈ 6.44 µM); MIC [13]: 0.5 µg/mL (≈ 1.61 µM); MIC (strain #23 Serratia marcescens): 2 µg/mL (≈ 6.44 µM); MIC (strain #24 Serratia marcescens): 2 µg/mL (≈ 6.44 µM); MIC [14]: 0.5 µg/mL (≈ 1.61 µM); MIC (strain #26 Shigella sonnei): 0.5 µg/mL (≈ 1.61 µM); MIC (strain #27 Shigella flexneri): 0.25 µg/mL (≈ 0.806 µM); MIC [15]: 0.5 µg/mL (≈ 1.61 µM) |
| C[C@@H](O)C1C(=O)N2C(C(=O)O)=C(CN3CC[C@@H](N)C3)[C@H](C)C12 (stereo partly shown) [Compound 151] | 0.25 (≈ 0.808 µM) | 0.5 (≈ 1.62 µM) | 2 (≈ 6.46 µM) | 1 (≈ 3.23 µM) | 0.25 (≈ 0.808 µM) | 0.5 (≈ 1.62 µM) | 2 (≈ 6.46 µM) | 0.25 (≈ 0.808 µM) | 0.5 (≈ 1.62 µM) | 0.25 (≈ 0.808 µM) | 0.25 (≈ 0.808 µM) | 0.25 (≈ 0.808 µM) | 0.5 (≈ 1.62 µM) | 0.5 (≈ 1.62 µM) | 0.5 (≈ 1.62 µM) | ≤ 0.008 | 4 (≈ 12.9 µM) | 4 (≈ 12.9 µM) | 1 (≈ 3.23 µM) | 0.5 (≈ 1.62 µM) | MIC [12]: 2 µg/mL (≈ 6.46 µM); MIC [13]: 0.5 µg/mL (≈ 1.62 µM); MIC (strain #23 Serratia marcescens): 1 µg/mL (≈ 3.23 µM); MIC (strain #24 Serratia marcescens): 1 µg/mL (≈ 3.23 µM); MIC [14]: 0.5 µg/mL (≈ 1.62 µM); MIC (strain #26 Shigella sonnei): 0.5 µg/mL (≈ 1.62 µM); MIC (strain #27 Shigella flexneri): 0.25 µg/mL (≈ 0.808 µM); MIC [15]: 0.25 µg/mL (≈ 0.808 µM) |
